One assay deals with BACE1 (Homo sapiens (Human), UniProt P56817). The experiment in a line: Cellular Aβ-lowering assay. The assay is classed as cell-based. The following applies: HEK293 cells stably expressing human APP wt (APP695); Aβ40 in supernatant by ELISA after 18-20 hrs. On the procedure:
Cellular Aβ-Lowering Assay: Human HEK293 cells which are stably transfected with a vector expressing a cDNA of the human APP wt gene (APP695) were used to assess the potency of the compounds in a cellular assay. The cells were seeded in 96-well microtiter plates in cell culture medium (Iscove, plus 10% (v/v) fetal bovine serum, glutamine, penicillin/streptomycin) to about 80% confluence and the compounds were added at a 10× concentration in 1/10 volume of medium without FCS containing 8% DMSO (final concentration of DMSO was kept at 0.8% v/v). After 18-20 hrs incubation at 37° C. and 5% CO2 in a humidified incubator the culture supernatant was harvested for the determination of Aβ40 concentrations. […] After blocking of non-specific binding sites with e.g. 1% BSA and washing, the culture supernatants were added in suitable dilutions together with a horseradish peroxidase-coupled Aβ detection antibody (e.g., antibody 4G8, Senetek, Maryland Heights, Mo.) and incubated for 5 to 7 hrs. Subsequently the wells of the microtiter plate were washed extensively with Tris-buffered saline containing 0.05% Tween 20 and the assay was developed with tetramethylbenzidine/H2O2 in citric acid buffer. After stopping the reaction with one volume […] the reaction was measured in an ELISA reader at 450 nm wavelength. The concentrations of Aβ in the culture supernatants were calculated from a standard curve obtained with known amounts of pure Aβ peptide.
On the technique in general: An ELISA detects its analyte on a solid surface through an enzyme-linked reagent.

For the next assay, the target named is BACE2 (Rattus norvegicus (Rat), UniProt Q6IE75). The experiment in a line: Assay for BACE inhibition by measuring cellular TMEM27 cleavage. Format: cell-based. Conditions: INS-TMEM27 (INS1e rat cell line, inducible hTMEM27); shed TMEM27 by ELISA. From the text:
Assay for BACE Inhibition by Measuring Cellular TMEM27 Cleavage:
The assay uses the principle of inhibition of human TMEM27 cleavage by endogenous cellular BACE2 in the Ins1e rat cell line and shedding from the cell surface into the culture medium, followed by detection in an ELISA assay Inhibition of BACE2 prevents the cleavage and shedding in a dose-dependent manner.
The stable cell line “INS-TMEM27” represents an INS1e-derived cell line with inducible expression (using the TetOn system) of full-length hTMEM27 in a doxycycline-dependent manner. The cells are cultured throughout the experiment in RPMI1640+Glutamax (Invitrogen) Penicillin/Streptomycin, 10% Fetal bovine serum, […], […], 100 micrograms/ml G418 and 100 microgram/ml hygromycin and are grown inadherent culture at 37° C. in a standard CO2 cell culture incubator.
INS-TMEM27 cells are seeded in 96-well plates. After 2 days in culture, BACE2 inhibitor is added in a range of concentrations as required by the assay and after a further two hours, doxycycline is added to a final concentration of 500 ng/ml. The cells are incubated for a further 46 hours and the supernatant harvested for detection of shed TMEM27.
An ELISA assay (using a pair of mouse anti-human-TMEM27 antibodies, raised against the extracellular domain of TMEM27) is used for detection of TMEM27 in the culture medium. An EC50 for BACE2 inhibition is calculated using the ELISA readout for each inhibitor concentration with standard curve-fitting software such as XLFit for the Excel spreadsheet program.

From patent US8754075B2, “1,3-oxazines as BACE1 and/or BACE2 inhibitors” (Hoffmann-La Roche Inc., priority 2011, dated 2014) come the findings set out here.

Usually pIC50 stands for the IC50 on a negative log10 scale, so that one unit is a factor of ten. A lower pIC50 goes with a high IC50.

pIC50: −log10 of the molar value.

Sequence of BACE2 (Q6IE75 63-514): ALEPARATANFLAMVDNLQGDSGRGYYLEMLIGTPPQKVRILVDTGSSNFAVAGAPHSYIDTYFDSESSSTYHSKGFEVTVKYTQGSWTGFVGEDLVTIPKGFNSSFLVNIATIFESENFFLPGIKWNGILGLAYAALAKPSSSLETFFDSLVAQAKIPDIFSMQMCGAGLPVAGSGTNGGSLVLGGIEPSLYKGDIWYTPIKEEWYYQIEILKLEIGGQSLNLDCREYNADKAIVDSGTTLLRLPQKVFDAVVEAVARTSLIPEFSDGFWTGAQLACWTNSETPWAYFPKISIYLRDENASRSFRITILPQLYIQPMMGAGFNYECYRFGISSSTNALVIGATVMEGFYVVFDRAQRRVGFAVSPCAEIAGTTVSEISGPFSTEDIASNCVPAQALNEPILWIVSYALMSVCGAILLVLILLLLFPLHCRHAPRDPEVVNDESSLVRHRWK
Sequence of BACE1 (P56817 46-501): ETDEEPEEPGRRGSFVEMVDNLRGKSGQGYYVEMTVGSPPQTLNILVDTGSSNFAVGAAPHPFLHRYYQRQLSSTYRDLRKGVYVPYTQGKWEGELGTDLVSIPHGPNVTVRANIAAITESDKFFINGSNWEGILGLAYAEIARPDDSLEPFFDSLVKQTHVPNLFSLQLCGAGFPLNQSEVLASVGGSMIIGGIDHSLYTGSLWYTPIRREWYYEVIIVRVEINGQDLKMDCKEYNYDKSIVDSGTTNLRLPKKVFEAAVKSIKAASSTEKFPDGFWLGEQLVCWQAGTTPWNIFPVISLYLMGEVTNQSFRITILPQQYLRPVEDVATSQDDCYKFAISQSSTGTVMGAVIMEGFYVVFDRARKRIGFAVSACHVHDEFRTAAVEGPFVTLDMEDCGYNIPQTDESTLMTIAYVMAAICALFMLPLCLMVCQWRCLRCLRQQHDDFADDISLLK

For the compound `C[C@]1(F)COC(N)=N[C@]1(C)c1cc(NC(=O)c2ncc(Cl)cc2Cl)ccc1F` [Example 39, 3,5-Dichloro-pyridine-2-carboxylic acid [3-((4R,5R)-2-amino-5-fluoro-4,5-dimethyl-5,6-dihydro-4H-[1,3]oxazin-4-yl)-4-fluoro-phenyl]-amide], the values for the pIC50 against BACE1 and at BACE2 were 8.70 and 8.40, respectively.
Take `C[C@]1(F)COC(N)=N[C@]1(C)c1cc(NC(=O)C2CC2(F)F)ccc1F` (stereo partly drawn) [Example 44, 2,2-Difluoro-cyclopropanecarboxylic acid [3-((4R,5R)-2-amino-5-fluoro-4,5-dimethyl-5,6-dihydro-4H-[1,3]oxazin-4-yl)-4-fluoro-phenyl]-amide]: the pIC50 against BACE1 was 7.49; against BACE2, 6.85.
As for `C[C@]1(c2cc(NC(=O)c3cnc(C(F)F)cn3)ccc2F)N=C(N)OC[C@@H]1F` [Example 15, 5-Difluoromethyl-pyrazine-2-carboxylic acid [3-((4R,5R)-2-amino-5-fluoro-4-methyl-5,6-dihydro-4H-[1,3]oxazin-4-yl)-4-fluoro-phenyl]-amide], the pIC50 against BACE1 was 8.30; against BACE2 it was 7.64.
In the same order, the values of `C[C@]1(c2cc(NC(=O)c3ncc(C(F)(F)F)cc3Cl)ccc2F)N=C(N)OC[C@H]1F` [Example 36, 3-Chloro-5-trifluoromethyl-pyridine-2-carboxylic acid [3-((4R,5S)-2-amino-5-fluoro-4-methyl-5,6-dihydro-4H-[1,3]oxazin-4-yl)-4-fluoro-phenyl]-amide] are 6.85 and 5.39.
On to `C[C@]1(c2cc(NC(=O)c3ncc(Cl)cc3Cl)ccc2F)N=C(N)OC[C@@H]1F` [Example 2, 3,5-Dichloro-pyridine-2-carboxylic acid [3-((4R,5R)-2-amino-5-fluoro-4-methyl-5,6-dihydro-4H-[1,3]oxazin-4-yl)-4-fluoro-phenyl]-amide], for which the values for the pIC50 on BACE1 and against BACE2 were 9.22 and 8.10, respectively.
As to `C[C@]1(c2cc(NC(=O)c3n[nH]cc3Cl)ccc2F)N=C(N)OC[C@@H]1F` [Example 28, 4-Chloro-1H-pyrazole-3-carboxylic acid [3-((4R,5R)-2-amino-5-fluoro-4-methyl-5,6-dihydro-4H-[1,3]oxazin-4-yl)-4-fluoro-phenyl]-amide], the values for the negative-log IC50 (pIC50) against BACE1 and at BACE2 were 6.89 and 7.46, respectively.
